Results published in paper PMC5769128, “Human UDP-Glucuronosyltransferase 2B4 and 2B7 Are Responsible for Naftopidil Glucuronidation in Vitro” (Frontiers in Pharmacology, 2018).

Tests used:
UGT1A1 = target: T1, UGT1A1 (Homo sapiens, UniProt P22309); experiment: Inhibition screening of recombinant UGTs by NAF enantiomers, UGT1A1 (4-MU); type: in vitro ADME; settings: recombinant UGT1A1, probe 4-MU, 10 μM NAF enantiomer, read-out: Inhibition of 4-MU-G formation
T1 construct: purchased BD Gentest
T1 sequence (P22309 26-533): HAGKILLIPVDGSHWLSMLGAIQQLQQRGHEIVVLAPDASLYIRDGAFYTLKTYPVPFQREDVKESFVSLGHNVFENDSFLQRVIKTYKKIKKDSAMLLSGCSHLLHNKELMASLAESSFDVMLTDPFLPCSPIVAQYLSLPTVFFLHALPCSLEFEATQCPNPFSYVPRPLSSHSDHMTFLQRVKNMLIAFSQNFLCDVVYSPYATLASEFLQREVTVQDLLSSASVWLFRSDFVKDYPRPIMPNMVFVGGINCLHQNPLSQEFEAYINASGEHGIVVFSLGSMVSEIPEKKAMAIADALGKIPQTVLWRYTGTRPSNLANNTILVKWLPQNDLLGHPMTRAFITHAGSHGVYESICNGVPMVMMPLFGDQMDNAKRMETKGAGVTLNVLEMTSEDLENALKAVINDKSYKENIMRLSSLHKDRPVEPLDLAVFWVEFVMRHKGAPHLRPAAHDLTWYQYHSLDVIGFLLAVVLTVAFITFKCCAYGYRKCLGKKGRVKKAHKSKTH
Method: The inhibition screening study was performed by investigating the 12 recombinant UGTs with 10 and 100 μM NAF enantiomer. […] 4-MU, as a non-specific substrate, was added to the other incubated samples. Instead of NAF enantiomers, the same volume of water was added to be the control sample. […] The formation of 4-MU-G and TFP-G produced from the 12 incubation system were analyzed by HPLC. The instrument parameters for the LC were as follows: system, Agilent 1260; Agilent Eclipse Plus C18 (2.1 mm × 50 mm, 1.8 μm, Santa Clara, CA, United States); mobile phase, methanol: 0.1% formic acid in water (0–3 min, 35:65; 3.1–4.5 min, 65:35; 4.6–5 min, 35:65); flow rate, 0.4 mL/min; column temperature, 25°C; and injection volume, 2 μL. The retention times of 4-MU, 4-MU-G, TFP, TFP-G, and MU (IS) were 1.5, 0.5, 2.2, 1.8, and 1.0 min, respectively.

[1] = target: T2, recombinant human UGT1A10 (Homo sapiens, UniProt Q9HAW8); experiment: UGT reaction screening of NAF enantiomers, UGT1A10; settings: 10 μM substrate, 45 min
T2 sequence (Q9HAW8 26-530): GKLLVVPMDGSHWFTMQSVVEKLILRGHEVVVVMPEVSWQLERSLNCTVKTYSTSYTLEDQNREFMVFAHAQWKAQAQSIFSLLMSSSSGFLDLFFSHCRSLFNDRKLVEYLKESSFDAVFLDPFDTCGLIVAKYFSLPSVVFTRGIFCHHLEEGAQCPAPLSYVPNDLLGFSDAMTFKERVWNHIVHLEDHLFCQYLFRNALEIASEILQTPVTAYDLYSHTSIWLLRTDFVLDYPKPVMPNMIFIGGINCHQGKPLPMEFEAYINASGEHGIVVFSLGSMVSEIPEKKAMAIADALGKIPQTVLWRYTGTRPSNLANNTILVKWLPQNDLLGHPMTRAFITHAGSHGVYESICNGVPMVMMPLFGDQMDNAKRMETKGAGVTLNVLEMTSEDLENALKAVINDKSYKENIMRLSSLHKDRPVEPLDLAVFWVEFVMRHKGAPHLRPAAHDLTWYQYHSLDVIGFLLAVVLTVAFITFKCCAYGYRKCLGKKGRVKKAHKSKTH

[2] = Kinetics of NAF enantiomer glucuronidation by human kidney microsomes; type: in vitro ADME; settings: human, human kidney microsomes, pH 7.5; NAF glucuronidation by HKM
Method: (§1) All glucuronidation assays were conducted in an incubation volume of 200 μL. Incubations were performed at 37°C in 50 mM Tris–HCl buffer (pH 7.5) with 10 mM magnesium chloride, 1 mg protein/mL of enzyme (microsomes and recombinant human UGTs), alamethicin (100 μg of alamethicin/mg microsomal protein), and NAF enantiomers (2.5–80 μM). The reaction was initiated by the addition of UDPGA (5 mM) and incubated at 37°C in a shaking water bath for 45 min. The reaction was terminated by the addition of 200 μL of ice-cold acetonitrile containing the IS (1 μM) and then centrifuged at 5000 ×g for 10 min at 4°C. The supernatant fraction was injected into the RRLC-MS/MS apparatus. Protein concentration (0.5–2 mg/mL) and incubation time (15–180 min) were optimized in preliminary studies to be within initial linear rate conditions.
(§2) Kinetic parameters were assessed in the HLM, RLM, HKM, RKM, and recombinant human UGTs (UGT2B4, 2B7, and 1A9).

[3] = test system: human kidney microsomes (HKM); experiment: as above; type: in vitro ADME
Method: as §1, §2

UGT2B7 [4] = target: T3, UGT2B7 (Homo sapiens, UniProt P16662); experiment: Inhibition of zidovudine glucuronidation in pooled HLM; type: in vitro ADME; design: tissue BD Gentest; host or cells: pooled human liver microsomes; settings: substrate zidovudine, enzyme HLM
T3 sequence (P16662 24-529): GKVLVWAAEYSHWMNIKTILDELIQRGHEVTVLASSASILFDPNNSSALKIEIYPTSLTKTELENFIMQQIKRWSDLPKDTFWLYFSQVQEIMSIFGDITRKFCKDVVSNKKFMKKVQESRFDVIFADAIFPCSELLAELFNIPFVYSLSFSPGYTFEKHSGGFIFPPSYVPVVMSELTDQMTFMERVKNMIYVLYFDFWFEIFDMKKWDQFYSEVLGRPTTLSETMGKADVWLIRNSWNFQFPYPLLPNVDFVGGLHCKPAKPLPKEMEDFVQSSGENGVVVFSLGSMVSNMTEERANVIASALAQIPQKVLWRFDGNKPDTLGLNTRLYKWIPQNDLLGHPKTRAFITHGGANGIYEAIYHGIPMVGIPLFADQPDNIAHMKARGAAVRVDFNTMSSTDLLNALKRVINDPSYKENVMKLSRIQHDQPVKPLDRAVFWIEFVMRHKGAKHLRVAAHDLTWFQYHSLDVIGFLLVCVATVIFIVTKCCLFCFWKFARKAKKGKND

UGT2B7 [5] = target: T3, UGT2B7; experiment: biochemical
Method: The inhibition of UGT1A9 and UGT2B7 by NAF enantiomer was investigated using the pooled HLM, UGT1A9, and UGT2B7 with concentrations similar to that of the NAF enantiomer. Propofol, which was used as the specific substrate of UGT1A9, was added to the incubation. […] Inhibitor constants (Ki value) were estimated by fitting the expressions for competitive, non-competitive, and mixed inhibition models with Dixon plots and Lineweaver–Burk plots.

[6] = test system: UGT1A4, 1A3, 2B17, 2B15, 1A9, 1A8, and 1A7; experiment: UGT reaction screening of S(-)-NAF, minor isoforms; type: in vitro ADME, human; settings: 10 μM substrate, 45 min

inhibition at 10 μM (UGT1A1)	Glucuronide formation by UGT1A10 [1]	Km at 45 min [2]	Inhibition type (UGT2B7 [4])	Ki (UGT2B7 [4])	Ki (UGT2B7 [5])	SMILES	Kinetics type [3]	Glucuronidation activity [6]
> 50%	No R(+)-NAF-G was detected	40 µM	Competitive	64.9 ± 7.8 µM	12.1 ± 2.2 µM	COc1ccccc1N1CCN(C[C@@H](O)COc2cccc3ccccc23)CC1 [R(+)-NAF]	Michaelis–Menten model	
> 50%	no activity	35 µM	Competitive	35.7 ± 4.1 µM	18.5 ± 3.3 µM	COc1ccccc1N1CCN(C[C@H](O)COc2cccc3ccccc23)CC1 [S(-)-NAF]	substrate inhibition model	a small amount of activity
